# According to patent publication US8383637B2, “2-amino-quinazoline derivatives useful as inhibitors of β-secretase (BACE)” (Jansssen Pharmaceutica N.V., priority 2004, dated 2013):
# Like-named read-outs stand apart in the source and are kept apart here.
# Experiments:
# β-secretase(BACE) [1] = molecular target: T1, β-secretase(BACE) (Homo sapiens, UniProt P56817); experiment: BACE Assay-2 (FS1 substrate, IC50 and Ki); assay type: biochemical; conditions: procedure of Example 159, FS1 substrate; read-out: Ki μM (159)
# T1 construct: purchased Panvera
# T1 sequence (P56817 46-501): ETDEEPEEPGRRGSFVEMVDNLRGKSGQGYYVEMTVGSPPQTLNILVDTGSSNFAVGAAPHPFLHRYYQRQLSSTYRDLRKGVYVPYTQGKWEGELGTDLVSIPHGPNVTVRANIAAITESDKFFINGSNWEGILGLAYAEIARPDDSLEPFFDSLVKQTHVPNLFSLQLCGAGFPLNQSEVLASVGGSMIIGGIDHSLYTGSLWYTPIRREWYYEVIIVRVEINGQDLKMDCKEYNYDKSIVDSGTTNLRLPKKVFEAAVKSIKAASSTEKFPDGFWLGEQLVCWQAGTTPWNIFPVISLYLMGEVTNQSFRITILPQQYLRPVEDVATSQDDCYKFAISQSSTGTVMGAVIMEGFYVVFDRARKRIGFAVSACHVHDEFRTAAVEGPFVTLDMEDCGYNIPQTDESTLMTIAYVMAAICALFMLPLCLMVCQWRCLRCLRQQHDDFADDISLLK
# β-secretase(BACE) [2] = molecular target: T1, β-secretase(BACE); experiment: BACE FS1% Inhibition Assay; assay type: biochemical; conditions: FS1 substrate; for inhibition at 1 µM: 1 μM test compound; for inhibition at 3 µM: 3 μM test compound
# Outline: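 Percent inhibition at each tested concentration, referenced to enzyme-free blank and vehicle-only positive control. Reaction: compound and BACE (4 μg/mL working stock) mixed 20 min at room temperature before FS1 substrate (300 μg/mL working stock), then 1 h at room temperature.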
# [3] = 0.3 μM test compound, read-out: % Inhibition (FS) 0.3 μM
# [4] = read-out: % Inhibition (FS) 1 μM
# [5] = read-out: % Inhibition (FS) 3 μM
# [6] = 0.3 μM test compound, read-out: % Inhibition (FS)
Structure (SMILES),Ki (β-secretase(BACE) [1]) [µM],inhibition at 0.3 µM (β-secretase(BACE) [2]; [3]) [%],inhibition at 1 µM (β-secretase(BACE) [2]; [4]) [%],inhibition at 3 µM (β-secretase(BACE) [2]; [5]) [%],inhibition at 0.3 µM (β-secretase(BACE) [2]; [6]) [%],inhibition at 1 µM (β-secretase(BACE) [2]; read-out: % Inhibition (FS)) [%],inhibition at 3 µM (β-secretase(BACE) [2]; read-out: % Inhibition (FS)) [%],"% Inhibition (FS) 0.3 μM (β-secretase(BACE) [2]; 0.3 μM test compound, 0.3 µM) [%]"
Cc1cccc(Oc2ccc3c(c2)CN(Cc2cccc(C(=O)N(C)C4CCCCC4)c2)C(N)=N3)c1 [Compound 209],0.29,< 30,58,103,–,–,–,–
CCCN1Cc2cc(Oc3cccc(NCc4ccc(C)cc4)c3)ccc2N=C1N [Compound 729],0.33,–,–,–,33,61,100,–
CN(C(=O)c1cccc(CN2Cc3cc(-c4ccccc4C#N)ccc3N=C2N)c1)C1CCCCC1 [Compound 263],0.77,20,60,92,–,–,–,–
CCCCCC(CCC(=O)NC1CCCCC1)N1Cc2cc(Oc3ccccc3)ccc2N=C1N (stereo not drawn) [Compound 149],0.21,32,71,111,–,–,–,–
"CN(C(=O)CC[C@@H](C1CCOCC1)N1Cc2cc(Oc3ccccc3)ccc2N=C1N)[C@H](COCc1ccccc1)C(=O)O [Compound 784, 2-{[4-(2-Amino-6-phenoxy-4H-quinazolin-3-yl)-4S-(tetrahydro-pyran-4-yl)-butyryl]-methyl-amino}-3R-benzyloxy-propionic acid]",0.298,–,–,–,107,108,120,–
Cc1ccccc1-c1ccc2c(c1)CN(CCNC(=O)C1CCCCC1)C(N)=N2 [Compound 537],0.041,83,106,125,–,–,–,–
CN(C(=O)CC[C@@H](C1CCCCC1)N1Cc2cc(Oc3ccccc3)ccc2N=C1N)[C@H]1CC[C@H](C(=O)O)CC1 [Compound 740],0.037,–,–,–,82,98,104,–
CCC(c1cccc(C(=O)N(C2CCCCC2)C2CCCCC2)c1)N1Cc2cc(-c3ccccc3OC)ccc2N=C1N (stereo not drawn) [Compound 418],0.035,54,89,119,–,–,–,–
"NC1=Nc2ccc(Oc3ccccc3)cc2CN1[C@@H](CCC(=O)N(CCO)[C@H]1CC[C@@H](C(=O)O)CC1)C1CCCCC1 [Compound 749, (S)-Enantiomer of 4-cis-[[4-(2-Amino-6-phenoxy-4H-quinazolin-3-yl)-4-cyclohexyl-butyryl]-(2-hydroxy-ethyl)-amino]-cyclohexanecarboxylic acid]",0.017,–,–,–,113,112,115,–
NC1=Nc2ccc(Oc3ccccc3)cc2CN1CCNC(=O)Nc1ccccc1 [Compound 205],0.32,< 30,47,90,–,–,–,–
CC(C)CC(=O)NC[C@@H](C(C)C)N1Cc2cc(Oc3ccccc3)ccc2N=C1N [Compound 563],0.02,101,119,127,–,–,–,–
"CN(C(=O)CC[C@@H](C1CCC(=O)CC1)N1Cc2cc(Oc3ccccc3)ccc2N=C1N)C1CCCCC1 [Compound 732, (S)-enantiomer of 4-(2-Amino-6-phenoxy-4H-quinazolin-3-yl)-N-cyclohexyl-N-methyl-4-(4-oxo-cyclohexyl)-butyramide]",0.01,–,–,–,135,135,133,–
NC1=Nc2ccc(-c3cccc(CO)c3)cc2CN1CCNC(=O)CC1CCCC1 [Compound 583],0.49,40,56,86,–,–,–,–
Cc1ccccc1-c1ccc2c(c1)CN(CCNC(=O)C1CCOCC1)C(N)=N2 [Compound 693],0.17,–,–,–,47,83,109,–
CC(C)N(C(=O)CCN1Cc2cc(Oc3ccccc3)ccc2N=C1N)C1CCCCC1 [Compound 179],1.04,< 30,54,85,–,–,–,–
CN(C(=O)c1cccc(CN2Cc3cc(-c4ccccc4F)ccc3N=C2N)c1)C1CCCCC1 [Compound 334],0.068,74,103,118,–,–,–,–
"CN(C(=O)CC[C@@H](C1CCOCC1)N1Cc2cc(Oc3ccccc3)ccc2N=C1N)C1CCCCC1 [Compound 709, (S)-enantiomer of 4-(2-Amino-6-phenoxy-4H-quinazolin-3-yl)-N-cyclohexyl-N-methyl-4-(tetrahydro-pyran-4-yl)-butyramide]",0.0065,–,–,–,141,143,139,–
CC(C)CCC(=O)NCCN1Cc2cc(-c3ccccc3F)ccc2N=C1N [Compound 647],0.033,79,100,113,–,–,–,–
NC1=Nc2ccc(-c3ccccc3F)cc2CN1CCC(=O)NC1C2CC3CC(C2)CC1C3 (stereo not drawn) [Compound 635],0.014,104,115,119,–,–,–,–
CC(C)C(CC(=O)N(C)C1CCCCC1)N1Cc2cc(Oc3ccccc3)ccc2N=C1N (stereo not drawn) [Compound 201],0.4,< 30,< 30,66,–,–,–,–
CN(C(=O)CC[C@@H](C1CCCCC1)N1Cc2c(cccc2Oc2ccccc2)N=C1N)C1CCCCC1 [Compound 753],0.656,–,–,–,13,47,93,–
"CONC1=Nc2ccc(-c3ccccc3OC)cc2CN1Cc1cccc(C(=O)N(C)C2CCCCC2)c1 [Compound 605, N-Cyclohexyl-3-[2-methoxyamino-6-(2-methoxy-phenyl)-4H-quinazolin-3-ylmethyl]-N-methyl-benzamide]",0.54,47,72,111,–,–,–,–
CN(C(=O)CCCN1Cc2cc(Oc3ccccc3)ccc2N=C1N)C1CCCCC1 [Compound 177],0.56,< 30,80,102,–,–,–,–
NC1=Nc2ccc(-c3ccccc3)cc2CN1CCNC(=O)CC1CCCC1 [Compound 578],0.18,< 30,–,–,–,–,–,31
CCC(c1cccc(C(=O)N(C2CCCCC2)C2CCCCC2)c1)N1Cc2cc(Oc3ccccc3)ccc2N=C1N (stereo not drawn) [Compound 419],0.29,38,64,109,–,–,–,–
"CN(C(=O)CC[C@@H](C(=O)N(C)C1CCCCC1)N1Cc2cc(Oc3ccccc3)ccc2N=C1N)C1CCCCC1 [Compound 634, (S)-enantiomer of 2-(2-Amino-6-phenoxy-4H-quinazolin-3-yl)-pentanedioic acid bis-(cyclohexyl-methyl-amide)]",0.054,46,88,114,–,–,–,–
Cc1cccc(-c2ccc3c(c2)CN(Cc2cccc(C(=O)N(C)C4CCCCC4)c2)C(N)=N3)c1 [Compound 176],0.2,66,97,111,–,–,–,–
NC1=Nc2ccc(Oc3ccccc3)cc2CN1C(CNC(=O)C(c1ccccc1)c1ccccc1)C1CCCCC1 (stereo not drawn) [Compound 304],0.56,< 30,46,100,–,–,–,–
